From US20030211458A1, “Measurements of enzymatic activity in a single, individual cell in population” (priority 2000, published 2003)
Each block holds one molecule with its values, some of them ahead of it.

Tests used:
[1] = system: Peripheral blood lymphocytes; settings: individual cell, FDA staining before and after incubation at 37° C., FIG. 7
Procedure: Peripheral blood lymphocytes were loaded on a CC, and exposed to FDA, after which individual FI(t) was measured. […] At the end of incubation, the same cells were again exposed to the same FDA concentration and FI(t) measurements were again performed.
Since cells are in general heterogeneous, one would expect a distribution of FI(t) rates (slopes) in the same experiment. […] Thus, in such an experimental procedure, the determining parameter is the ratio between the initial and the final slopes, namely, the ratios between FI(t) slopes prior to and after incubation (with and without drugs), as well as ratios of individual KMAPP and VMAX prior to and after incubation.

[2] = system: intracellular nonspecific esterase; assay: Individual-cell sequential FDA hydrolysis (KMAPP, VMAX) on CS-S cytometer; assay type: cell-based, human; settings: for FI rate ratios of the same trapped cells sequentially exposed to different FDA concentrations: same cell carrier; for average KMAPP / average VMAX: average of individual cells
Procedure: Measuring Intracellular Nonspecific Esterase Activity in a Single Lymphocyte Using Fluorescein-Diacetate (FDA) as the Substrate.
Phytohemagglutinin PHA (HA15, Murex Biotech) was reconstituted in 5 ml of double-distilled water and further diluted ten times. For stimulation, 10 μl of this solution was added to a 90 μl cell suspension (7×10^6 cells/ml).
A staining solution of 3.6 μM FDA (Riedel-de Haen Ag. Seelze-Hanover) in Dulbecco Phosphate Buffered Saline (PBS, Biological Industries) was prepared as follows: 50 mg of FDA was dissolved in 5 ml of DMSO (Sigma). 7.5 μl of this solution was added to 50 ml PBS. For 0.6, 1.2 and 2.4 μM the solution was further diluted in PBS.
30 Heparinized blood (30 ml), was taken from healthy, normal volunteers. The procedure for separating the PBMC has been described in detail, elsewhere [Sunray M, Deutsch M, Kaufman M, Tirosh R, Weinreb A, and Rachmani H. Cell Activation influences cell staining linetics, Spectrochimica Acta A (1997) 53:1645-1653]. Shortly after removing the iron absorbing cells, the remaining cells are layered on a two-layer (100% and 80%) cell density gradient (Ficoll Paque, Pharmacia 1.077 g/ml) and centrifuged. The cells accumulated at the interface between the two Ficoll layers, were collected and kept at 37° C. in 5 ml of enriched culture medium overnight. The next day the PBMC were washed and resuspended in PBS at a final concentration of 7·10^6 cells/ml. More than 70% of the cells were defined as T lymphocytes and viability, which was determined using eosin, was always higher than 90%.
Freshly prepared PBMC (7·10^6 cells/ml) were incubated at 37° C., 5% CO2 with 5 μgr/ml PHA for 30 minutes. PBMC controls were incubated without PHA under identical conditions.
The multiparametric, computerized, discrete cytometer CS-S used in performing this example was described in detail in the above specified US Patents. Its central feature is a cell carrier (CC) incorporating a 100×100 dimensional array having a conical cross-section with an upper opening of ˜7 μm and lower opening of ·4 μm, each approximately 20 μm apart, in which individual cells are trapped. The cell carrier is mounted on a computer-controlled stage that enables repeated multi-scanning of the same cells.
Loading the cells in wells traps on the Cell Carrier (CC) was carried out, as described in Deutsch M, and Weinreb A., Apparatus for High Precision Repetitive Sequential Optical Measurement of Living Cells, Cytometry (1994) 16: 214-226. An aliquot of 80 μl of unstained cell suspension (7×10^6 cells/ml) was loaded on the CC. Initial scanning was then performed in order to detect individual cell background scattering and auto-fluorescence. This undesired signal is recorded per measurement location and subtracted from the total emission signal (after exposure) in order to obtain the correct fluorescence signal.
For fluorescence intensity FI(t) measurements, trapped cells on the CC were sequentially exposed to increasing concentrations of FDA in PBS staining solutions.
Following background measurement, the volume of PBS, which covers the cells, was pumped out and the following procedure was carried out:
At time point zero, 40 μl of the lowest substrate concentration solution was applied on top of the trapped cells and a pre-chosen cell field was sequentially scanned 6 times. This yielded 6 accurately timed FI data points per each individual cell at a given dye concentration. FI is usually measured utilizing epi-fluoescence optical arrangement which permits the differentiation between the excitation energy and the emitted fluorescence energy to be detected by photomultipliers, CCD detectors etc.
The above procedure is repeated for each different substrate solution used in the experiment.
This yielded six FI data points for each individual cell, per substrate concentration, from which V was extracted and the individual cell KMAPP and VMAX values were calculated. […]

[3] = system: intracellular nonspecific esterase; assay: Flow cytometer (FACSCalibur) population average KMAPP and VMAX of FDA hydrolysis; assay type: cell-based, human
Procedure: Methods Cell Biol (1994) 41: 469-508. Four means of intracellular fluorescence intensities (IFI) were calculated from data accumulated along four time gates of 25 second each and 30 seconds apart, from which V0 was extracted. This process was sequentially performed on five different aliquots of cells (50 μl, at a concentration of 6×10^6 cells/ml) each exposed to different FDA concentrations (0.3, 0.6, 1.2, 1.8 and 2.4 μM. Introducing these average V0 in values Eq. 8 yielded population average KMAPP and VMAX of 2.16 μM and 4.32 μM and 6.6 and 5.83 in cells incubated with and without PHA. It should be noted that while KMAPP is an intrinsic value, VMAX depends on the optoelelctronic arrangement under use. Thus, obviously, at the population level, measurements carried out both on FC and average calculated from individual cell KMAPP measurement data yield similar KMAPP values, indicating the validity of the invented methodology.

[4] = system: intracellular nonspecific esterase; assay: Individual-cell sequential FDA hydrolysis (KMAPP, VMAX) on CS-S cytometer; assay type: cell-based, human; settings: different cell carriers
[5] = 1.2/0.6 μM FDA (concentration ratio 2.0)
[6] = 2.4/0.6 μM FDA (concentration ratio 4.0)
[7] = 3.6/0.6 μM FDA (concentration ratio 6.0)
[8] = FDA substrate, cells incubated without PHA, CS-S
[9] = FDA substrate, cells incubated without PHA
[10] = PHA-incubated vs control cells, CS-S

Molecule: OO [H2O2, hydrogen peroxide]
ratio pre to post treatment slopes (FI rate), control cells relative to treated cells [1]: double

population average KMAPP [3, 9]: 4.32 µM
population average VMAX [3, 9]: 5.83
Molecule: CC(=O)Oc1ccc2c(c1)Oc1cc(OC(C)=O)ccc1C21OC(=O)c2ccccc21 [FDA, Fluorescein-Diacetate]
FI rate ratios of the same trapped cells sequentially exposed to different FDA concentrations [2, 5]: 2.1
FI rate ratios of the same trapped cells sequentially exposed to different FDA concentrations [2, 6]: 3.6
FI rate ratios of the same trapped cells sequentially exposed to different FDA concentrations [2, 7]: 5.6
average KMAPP [2, 8]: 4.88 µM
average VMAX [2, 8]: 695 intensity/sec
FI rate ratios of cells parallely exposed to different FDA concentrations [4, 5]: 1.9
FI rate ratios of cells parallely exposed to different FDA concentrations [4, 6]: 4.4
FI rate ratios of cells parallely exposed to different FDA concentrations [4, 7]: 6.2

Molecule: Phytohemagglutinin [PHA]
decrease in KMAPP compared to the control [2, 10]: 69%
decrease in VMAX compared to the control [2, 10]: 6%
average KMAPP ([2]; cells incubated with PHA, FDA substrate 0.6-3.6 μM, CS-S): 1.50 µM
average VMAX ([2]; cells incubated with PHA, FDA substrate, CS-S): 652 intensity/sec
population average VMAX ([3]; cells incubated with PHA): 6.6
population average KMAPP ([3]; cells incubated with PHA, FDA 0.3-2.4 μM): 2.16 µM
